Results as given in patent US20170066795A1, “SOLID PRODRUG FORMS OF 2'-CHLORO-2'-METHYL URIDINE FOR HCV” (IDENIX PHARMACEUTICALS LLC, priority 2014, published 2017).
Like-named read-outs stand apart in the source and are kept apart here.

Tests used:
[1] = Example 4 Group A: safety (adverse events) in healthy volunteers; assay type: in vivo, human
Description: Six sequential cohorts of 8 health volunteers per cohort were randomized via a computer-generated randomization list in the ratio of 2:6. Two of the healthy volunteers (HV) received placebo and the remaining six received Compound I under fasted conditions at single ascending doses of 10, 25, 50, 150, or 300 mg, or multiple doses at 300 mg QD for 7 days (below, “Group A”).
(§1) For Groups A and B, dosing occurred between approximately 08:00 AM and 10:00 AM on each dosing day. Dosing was fasted for all subjects in Groups A and B. For fasted dosing, subjects observed a fasting period of approximately 10 hours prior to each dose and for an additional 4 hours post-dose.
Safety measurements included clinical history, routine laboratory evaluation, physical examination, 12-lead ECG, vital signs, adverse event (AE) assessment.

[2] = Example 4 Group B: plasma pharmacokinetics in genotype 1 HCV-infected subjects (LC/MS/MS); details: human, in vivo, fasted; for AUC(0-inf) / Cmax / half-life: mean ± SD; for AUC(0-inf): read-out: AUC∞ of Compound I; for Cmax: read-out: Cmax of Compound I; for half-life: read-out: t1/2 of Compound I (converted); for Tmax: median, read-out: Tmax of Compound I
Description: Five sequential cohorts of 3 HCV-infected subjects (HCV) per cohort received under fasted conditions open-label Compound I at single ascending doses of 10, 25, 50, 150, and 300 mg (below, “Group B”).
Compound I was provided as size 0, white, hard hydroxypropyl methylcellulose (HPMC) capsules for oral administration at 5 mg, 25 mg, and 50 mg strengths. The same powder blend containing 33.3% weight/weight (w/w) Compound I, a diluent, and a disintegrant is used to fill the capsules for all dose strengths. Matching placebo capsules will also be provided. Storage conditions will be provided on the study drug container label.
as §1
Plasma samples were obtained up to 120 hours after dosing and the levels of Compound I and its Nucleoside metabolite were measured by using validated LC/MS/MS methodology. Plasma pharmacokinetic parameters were obtained by using non-compartmental analysis with parameters reported as mean±standard deviation (SD) except for Tmax where median (min-max) is shown.

CC(C)OC(=O)[C@@H](C)N[P@@](=O)(OC[C@H]1O[C@@H](n2ccc(=O)[nH]c2=O)[C@](C)(Cl)[C@@H]1O)Oc1ccccc1 [Compound I]
Adverse event: Abdominal discomfort ([1]; 10 mg single dose (n = 6)): 0 n, %
Adverse event: Abnormal feces ([1]; 10 mg single dose (n = 6)): 0 n, %
Adverse event: Constipation ([1]; 10 mg single dose (n = 6)): 0 n, %
Adverse event: Dizziness ([1]; 10 mg single dose (n = 6)): 0 n, %
Adverse event: Dry mouth ([1]; 10 mg single dose (n = 6)): 0 n, %
Adverse event: Dry skin ([1]; 10 mg single dose (n = 6)): 0 n, %
Adverse event: Erythema ([1]; 10 mg single dose (n = 6)): 0 n, %
Adverse event: Flushing ([1]; 10 mg single dose (n = 6)): 0 n, %
Adverse event: Headache ([1]; 10 mg single dose (n = 6)): 0 n, %
Adverse event: Menstruation delayed ([1]; 10 mg single dose (n = 6)): 0 n, %
Adverse event: Musculoskeletal stiffness ([1]; 10 mg single dose (n = 6)): 0 n, %
Adverse event: Nausea ([1]; 10 mg single dose (n = 6)): 0 n, %
Adverse event: Palpitations ([1]; 10 mg single dose (n = 6)): 0 n, %
Adverse event: Pancreatic enzymes increased ([1]; 10 mg single dose (n = 6)): 0 n, %
Adverse event: Procedural nausea ([1]; 10 mg single dose (n = 6)): 0 n, %
Adverse event: Vessel puncture site bruise ([1]; 10 mg single dose (n = 6)): 0 n, %
Adverse event: Vessel puncture site pain ([1]; 10 mg single dose (n = 6)): 0 n, %
Adverse event: Vomiting ([1]; 10 mg single dose (n = 6)): 0 n, %
Subjects with AE ([1]; 10 mg single dose (n = 6)): 0 n, %
Adverse event: Abdominal discomfort ([1]; 25 mg single dose (n = 6)): 0 n, %
Adverse event: Abnormal feces ([1]; 25 mg single dose (n = 6)): 0 n, %
Adverse event: Constipation ([1]; 25 mg single dose (n = 6)): 0 n, %
Adverse event: Dizziness ([1]; 25 mg single dose (n = 6)): 0 n, %
Adverse event: Dry mouth ([1]; 25 mg single dose (n = 6)): 0 n, %
Adverse event: Dry skin ([1]; 25 mg single dose (n = 6)): 0 n, %
Adverse event: Erythema ([1]; 25 mg single dose (n = 6)): 0 n, %
Adverse event: Flushing ([1]; 25 mg single dose (n = 6)): 0 n, %
Adverse event: Headache ([1]; 25 mg single dose (n = 6)): 0 n, %
Adverse event: Menstruation delayed ([1]; 25 mg single dose (n = 6)): 0 n, %
Adverse event: Musculoskeletal stiffness ([1]; 25 mg single dose (n = 6)): 0 n, %
Adverse event: Nausea ([1]; 25 mg single dose (n = 6)): 0 n, %
Adverse event: Palpitations ([1]; 25 mg single dose (n = 6)): 0 n, %
Adverse event: Pancreatic enzymes increased ([1]; 25 mg single dose (n = 6)): 1 (16.7) n, %
Adverse event: Procedural nausea ([1]; 25 mg single dose (n = 6)): 1 (16.7) n, %
Adverse event: Vessel puncture site bruise ([1]; 25 mg single dose (n = 6)): 0 n, %
Adverse event: Vessel puncture site pain ([1]; 25 mg single dose (n = 6)): 0 n, %
Adverse event: Vomiting ([1]; 25 mg single dose (n = 6)): 0 n, %
Subjects with AE ([1]; 25 mg single dose (n = 6)): 2 (33.3) n, %
Adverse event: Abdominal discomfort ([1]; 50 mg single dose (n = 6)): 1 (16.7) n, %
Adverse event: Abnormal feces ([1]; 50 mg single dose (n = 6)): 0 n, %
Adverse event: Constipation ([1]; 50 mg single dose (n = 6)): 0 n, %
Adverse event: Dizziness ([1]; 50 mg single dose (n = 6)): 1 (16.7) n, %
Adverse event: Dry mouth ([1]; 50 mg single dose (n = 6)): 0 n, %
Adverse event: Dry skin ([1]; 50 mg single dose (n = 6)): 0 n, %
Adverse event: Erythema ([1]; 50 mg single dose (n = 6)): 0 n, %
Adverse event: Flushing ([1]; 50 mg single dose (n = 6)): 0 n, %
Adverse event: Headache ([1]; 50 mg single dose (n = 6)): 1 (16.7) n, %
Adverse event: Menstruation delayed ([1]; 50 mg single dose (n = 6)): 0 n, %
Adverse event: Musculoskeletal stiffness ([1]; 50 mg single dose (n = 6)): 0 n, %
Adverse event: Nausea ([1]; 50 mg single dose (n = 6)): 0 n, %
Adverse event: Palpitations ([1]; 50 mg single dose (n = 6)): 0 n, %
Adverse event: Pancreatic enzymes increased ([1]; 50 mg single dose (n = 6)): 0 n, %
Adverse event: Procedural nausea ([1]; 50 mg single dose (n = 6)): 0 n, %
Adverse event: Vessel puncture site bruise ([1]; 50 mg single dose (n = 6)): 0 n, %
Adverse event: Vessel puncture site pain ([1]; 50 mg single dose (n = 6)): 0 n, %
Adverse event: Vomiting ([1]; 50 mg single dose (n = 6)): 0 n, %
Subjects with AE ([1]; 50 mg single dose (n = 6)): 2 (33.3) n, %
Adverse event: Abdominal discomfort ([1]; 150 mg (n = 6)): 1 (16.7) n, %
Adverse event: Abnormal feces ([1]; 150 mg (n = 6)): 2 (33.3) n, %
Adverse event: Constipation ([1]; 150 mg (n = 6)): 0 n, %
Adverse event: Dizziness ([1]; 150 mg (n = 6)): 2 (33.3) n, %
Adverse event: Dry mouth ([1]; 150 mg (n = 6)): 1 (16.7) n, %
Adverse event: Dry skin ([1]; 150 mg (n = 6)): 0 n, %
Adverse event: Erythema ([1]; 150 mg (n = 6)): 1 (16.7) n, %
Adverse event: Flushing ([1]; 150 mg (n = 6)): 1 (16.7) n, %
Adverse event: Headache ([1]; 150 mg (n = 6)): 1 (16.7) n, %
Adverse event: Menstruation delayed ([1]; 150 mg (n = 6)): 0 n, %
Adverse event: Musculoskeletal stiffness ([1]; 150 mg (n = 6)): 0 n, %
Adverse event: Palpitations ([1]; 150 mg (n = 6)): 0 n, %
Adverse event: Pancreatic enzymes increased ([1]; 150 mg (n = 6)): 0 n, %
Adverse event: Procedural nausea ([1]; 150 mg (n = 6)): 0 n, %
Adverse event: Vessel puncture site bruise ([1]; 150 mg (n = 6)): 0 n, %
Adverse event: Vessel puncture site pain ([1]; 150 mg (n = 6)): 0 n, %
Adverse event: Vomiting ([1]; 150 mg (n = 6)): 1 (16.7) n, %
Subjects with AE ([1]; 150 mg (n = 6)): 4 (66.7) n, %
Adverse event: Abdominal discomfort ([1]; 300 mg QD x 7 days (n = 6)): 0 n, %
Adverse event: Abnormal feces ([1]; 300 mg QD x 7 days (n = 6)): 0 n, %
Adverse event: Constipation ([1]; 300 mg QD x 7 days (n = 6)): 0 n, %
Adverse event: Dizziness ([1]; 300 mg QD x 7 days (n = 6)): 0 n, %
Adverse event: Dry mouth ([1]; 300 mg QD x 7 days (n = 6)): 0 n, %
Adverse event: Dry skin ([1]; 300 mg QD x 7 days (n = 6)): 0 n, %
Adverse event: Erythema ([1]; 300 mg QD x 7 days (n = 6)): 0 n, %
Adverse event: Flushing ([1]; 300 mg QD x 7 days (n = 6)): 0 n, %
Adverse event: Headache ([1]; 300 mg QD x 7 days (n = 6)): 0 n, %
Adverse event: Menstruation delayed ([1]; 300 mg QD x 7 days (n = 6)): 1 (16.7) n, %
Adverse event: Musculoskeletal stiffness ([1]; 300 mg QD x 7 days (n = 6)): 0 n, %
Adverse event: Nausea ([1]; 300 mg QD x 7 days (n = 6)): 0 n, %
Adverse event: Palpitations ([1]; 300 mg QD x 7 days (n = 6)): 1 (16.7) n, %
Adverse event: Pancreatic enzymes increased ([1]; 300 mg QD x 7 days (n = 6)): 0 n, %
Adverse event: Procedural nausea ([1]; 300 mg QD x 7 days (n = 6)): 0 n, %
Adverse event: Vessel puncture site bruise ([1]; 300 mg QD x 7 days (n = 6)): 1 (16.7) n, %
Adverse event: Vessel puncture site pain ([1]; 300 mg QD x 7 days (n = 6)): 0 n, %
Adverse event: Vomiting ([1]; 300 mg QD x 7 days (n = 6)): 0 n, %
Subjects with AE ([1]; 300 mg QD x 7 days (n = 6)): 2 (33.3) n, %
Adverse event: Abdominal discomfort ([1]; 300 mg single dose (n = 6)): 0 n, %
Adverse event: Abnormal feces ([1]; 300 mg single dose (n = 6)): 0 n, %
Adverse event: Constipation ([1]; 300 mg single dose (n = 6)): 0 n, %
Adverse event: Dizziness ([1]; 300 mg single dose (n = 6)): 1 (16.7) n, %
Adverse event: Dry mouth ([1]; 300 mg single dose (n = 6)): 0 n, %
Adverse event: Dry skin ([1]; 300 mg single dose (n = 6)): 0 n, %
Adverse event: Erythema ([1]; 300 mg single dose (n = 6)): 0 n, %
Adverse event: Flushing ([1]; 300 mg single dose (n = 6)): 0 n, %
Adverse event: Headache ([1]; 300 mg single dose (n = 6)): 1 (16.7) n, %
Adverse event: Menstruation delayed ([1]; 300 mg single dose (n = 6)): 0 n, %
Adverse event: Musculoskeletal stiffness ([1]; 300 mg single dose (n = 6)): 1 (16.7) n, %
Adverse event: Nausea ([1]; 300 mg single dose (n = 6)): 1 (16.7) n, %
Adverse event: Palpitations ([1]; 300 mg single dose (n = 6)): 0 n, %
Adverse event: Pancreatic enzymes increased ([1]; 300 mg single dose (n = 6)): 0 n, %
Adverse event: Procedural nausea ([1]; 300 mg single dose (n = 6)): 0 n, %
Adverse event: Vessel puncture site bruise ([1]; 300 mg single dose (n = 6)): 1 (16.7) n, %
Adverse event: Vessel puncture site pain ([1]; 300 mg single dose (n = 6)): 0 n, %
Adverse event: Vomiting ([1]; 300 mg single dose (n = 6)): 0 n, %
Subjects with AE ([1]; 300 mg single dose (n = 6)): 3 (50.0) n, %
AUC(0-inf) ([2]; 10 mg single dose): 40 ± 12.6 ng·h/mL
Cmax ([2]; 10 mg single dose): 26.1 ± 11.9 ng/mL
half-life ([2]; 10 mg single dose): 88.2 ± 42 min
Tmax ([2]; 10 mg single dose): 0.5 h
AUC(0-inf) ([2]; 25 mg single dose): 140 ± 68.8 ng·h/mL
Cmax ([2]; 25 mg single dose): 68.4 ± 18.7 ng/mL
half-life ([2]; 25 mg single dose): 58.2 ± 17.4 min
Tmax ([2]; 25 mg single dose): 1 h
AUC(0-inf) ([2]; 50 mg single dose): 197 ± 40.1 ng·h/mL
Cmax ([2]; 50 mg single dose): 91.9 ± 10.7 ng/mL
half-life ([2]; 50 mg single dose): 71.4 ± 27.6 min
Tmax ([2]; 50 mg single dose): 1 h
AUC(0-inf) ([2]; 150 mg single dose): 664 ± 160 ng·h/mL
Cmax ([2]; 150 mg single dose): 297 ± 34 ng/mL
half-life ([2]; 150 mg single dose): 67.8 ± 17.4 min
Tmax ([2]; 150 mg single dose): 0.5 h
AUC(0-inf) ([2]; 300 mg single dose): 818 ± 256 ng·h/mL
Cmax ([2]; 300 mg single dose): 367 ± 537 ng/mL
half-life ([2]; 300 mg single dose): 94.8 ± 1.2 min
Tmax ([2]; 300 mg single dose): 1 h
